# Measured values as given in patent EP4603105A1, “PHARMACEUTICAL COMPOSITION CONTAINING CYCLIC COMPOUND HAVING SELECTIVE KRAS INHIBITORY EFFECT AGAINST HRAS AND NRAS” (CHUGAI SEIYAKU KABUSHIKI KAISHA, priority 2022, dated 2024).
# pIC50: −log10 of the molar value. Where a SMILES comes first, the peptide text is derived from it. Bridges are numbered along the chain shown (N, C = ends). [ ]: non-standard residue; d: D form. The star is where a group is joined. hPhe(3-Cl-4-CF3) = N[C@@H](CCc1ccc(C(F)(F)F)c(Cl)c1)C(=O)O; NPrPhe(4-CF3) = CCCN[C@@H](Cc1ccc(C(F)(F)F)cc1)C(=O)O; NMeGly(cPent) = CN[C@H](C(=O)O)C1CCCC1; Pro(4,4-F2) = O=C(O)[C@@H]1CC(F)(F)CN1; NMeL = CN[C@@H](CC(C)C)C(=O)O; Morpholide = C1CN(*)CCO1; Ac5c = NC1(C(=O)O)CCCC1; Aze = O=C(O)[C@@H]1CCN1; Sar = CNCC(=O)O
# Assays:
# HRAS wild-type protein = HRAS wild-type protein (Homo sapiens, UniProt P01112); experiment: Binding to HRAS by surface plasmon resonance (SPR), KD and KD ratio to KRAS
# Chain of HRAS wild-type protein (P01112 whole entry): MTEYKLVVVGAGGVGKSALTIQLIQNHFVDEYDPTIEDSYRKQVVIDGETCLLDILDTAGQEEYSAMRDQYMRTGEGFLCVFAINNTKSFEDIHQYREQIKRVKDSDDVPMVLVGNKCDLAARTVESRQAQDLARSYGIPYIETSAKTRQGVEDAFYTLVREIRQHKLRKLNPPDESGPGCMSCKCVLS
# Protocol: (§1) Surface plasmon resonance was used to analyze the binding affinity of compounds for KRAS, NRAS, and HRAS. The apparatus used was Biacore 8K, 8K+, or T200 (GE Healthcare), and the running buffer used was HBS (10 mM HEPES-NaOH, 150 mM NaCl, pH 7.4) containing 1 mM DTT, 10 mM MgCl2, 0.01% Tween 20, 10 µM GDP, and 4% DMSO.
# (§2) Biotinylated Avi-tag fusion KRAS, NRAS, and HRAS proteins were expressed in E. coli BL21 (DE3) strains, and after cells were homogenized, they were purified using Streptavidin Mutein Matrix and Superdex 75. After purification, GDP-loaded KRAS, NRAS, and HRAS proteins were immobilized on the surface of Sensor Chip CAP (Cytiva) coated with Biotin CAPture Reagent in an immobilization amount of about 100 to 300 RU. Binding of each compound was evaluated by the Single Cycle Kinetics method, and a running buffer or a compound solution was added to the RAS protein non-immobilized surface and the immobilized surface to obtain a binding response. The flow rate was set to 100 µL/min, and in the compound-adding cycle, compound solutions having different concentrations were intermittently added for 75 seconds each, starting from a low concentration. […] In the blank cycle, a running buffer was intermittently added and not the compound solution. The Biotin CAPture Reagent and RAS proteins were immobilized for each cycle, and at the end of each cycle, the sensor chip was regenerated by the regeneration solution appended to the Biotin CAPture Kit (Cytiva). Measurement was carried out at 30°C.
# (§3) The resulting sensorgram was subjected to curve fitting based on a 1:1 binding model on Biacore Insight Evaluation Software or T200 Evaluation Software, and thereby the dissociation constant KD of each compound with respect to KRAS, NRAS, and HRAS was determined. […] Blank indicates a compound from which the KD value with respect to NRAS or HRAS was not obtained.
# [1] = molecular target: GDP-bound NRAS wild-type protein (Homo sapiens, UniProt P01111); experiment: Binding to NRAS by surface plasmon resonance (SPR), KD and KD ratio to KRAS
# Chain of GDP-bound NRAS wild-type protein (P01111 whole entry): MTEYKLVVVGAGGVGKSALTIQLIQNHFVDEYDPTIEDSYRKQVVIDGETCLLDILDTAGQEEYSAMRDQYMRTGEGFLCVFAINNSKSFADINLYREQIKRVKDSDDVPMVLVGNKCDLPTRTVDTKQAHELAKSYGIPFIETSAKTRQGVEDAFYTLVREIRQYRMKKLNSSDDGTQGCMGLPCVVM
# Protocol: as §1, §2, §3
# [2] = system: human lung cancer strain NCI-H441; format: cell-based
# Procedure, shortened: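 Proliferation was scored by […] measured after the reagent was added to cultures kept at 37°C in 5% carbon dioxide.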
# [3] = ratio of KD for HRAS wild-type protein to KD for KRAS
# [4] = ratio of KD for GDP-bound NRAS wild-type protein to KD for KRAS
Compound,pIC50 [2],HRAS /KRAS (HRAS wild-type protein; [3]),"NRAS /KRAS [1, 4]",also measured
CCO[C@@H]1C[C@H]2C(=O)NC3(CCC3)C(=O)N(C)[C@@H](C3CCCC3)C(=O)N(C)[C@H](C(=O)N(C)CCOC)CC(=O)N(C)[C@@H](CC(C)C)C(=O)N[C@@H]([C@@H](C)CC)C(=O)N(C)CC(=O)N(C)[C@H]3C/C=C\CCN(C3=O)[C@@H](Cc3ccc(C(F)(F)F)cc3)C(=O)N(C)CC(=O)N[C@@H](CCc3ccc4sccc4c3)C(=O)N2C1 [PP1325],7.37,–,–,HRAS /KRAS (HRAS wild-type protein; ratio of KD with respect to HRAS wild-type protein to KD with respect to KRAS): A (a compound having 10 or more and less than 20 is denoted as A); NRAS /KRAS ([1]; ratio of KD with respect to GDP-bound NRAS wild-type protein to KD with respect to KRAS): A (a compound having 10 or more and less than 20 is denoted as A)
CC[C@H](C)[C@@H]1NC(=O)[C@H](CC(C)C)N(C)C(=O)C[C@@H](C)N(C)C(=O)[C@H](C2CCCC2)N(C)C(=O)C2(CCCC2)NC(=O)[C@@H]2CCCN2C(=O)[C@H](CCc2cc(F)c(C(F)(F)F)c(F)c2)NC(=O)CN(C)C(=O)[C@H](Cc2ccc(C(F)(F)F)cc2)N2CC/C=C\C[C@@H](C2=O)N(C)C(=O)CN(C)C1=O [PP1102],7.08,A (a compound having 10 or more and less than 20 is denoted as A),B (a compound having 3 or more and less than 10 is denoted as B),–
"CCCN1C(=O)[C@@H]2CCN2C(=O)CN(C)C(=O)[C@H]([C@@H](C)CC)NC(=O)[C@H](CC(C)C)N(C)C(=O)C[C@@H](C(=O)N2CCOCC2)NC(=O)[C@H](C2CCCC2)N(C)C(=O)C2(CCCC2)NC(=O)[C@@H]2CC(F)(F)CN2C(=O)[C@H](CCc2ccc(C(F)(F)F)c(Cl)c2)NC(=O)CN(C)C(=O)[C@@H]1Cc1ccc(C(F)(F)F)cc1 [PP0351] ([NMeL]I[Sar][Aze][NPrPhe(4-CF3)][Sar][hPhe(3-Cl-4-CF3)][Pro(4,4-F2)][Ac5c][NMeGly(cPent)]D-Morpholide; lactam N-11)",7.41,B (a compound having 3 or more and less than 10 is denoted as B),C (A compound having a KD ratio of 0.1 or more and less than 3 is denoted as C),–
CCO[C@@H]1C[C@H]2C(=O)NC3(CCC3)C(=O)N(C)[C@@H](C3CCCC3)C(=O)N(C)[C@H](C3CCC3)CC(=O)N(C)[C@@H](CC3CC3)C(=O)N[C@@H]([C@@H](C)CC)C(=O)N(C)CC(=O)N(C)[C@H]3C/C=C\CCN(C3=O)[C@@H](Cc3ccc(C(F)(F)F)cc3)C(=O)N(C)CC(=O)N[C@@H](CCc3cc(F)c(C(F)(F)F)c(F)c3)C(=O)N2C1 [PP1637],7.49,–,–,HRAS /KRAS (HRAS wild-type protein; ratio of KD value for HRAS wild-type protein to KD value for KRAS (SPR)): A (a compound having 10 or more and less than 20 is denoted as A); NRAS /KRAS ([1]; ratio of KD value for GDP-bound NRAS wild-type protein to KD value for KRAS (SPR)): A (a compound having 10 or more and less than 20 is denoted as A)
CC[C@H](C)[C@@H]1NC(=O)[C@H](CC(C)C)N(C)C(=O)C[C@@H](C(=O)N2CCOCC2)N(C)C(=O)[C@H](C2CCCC2)N(C)C(=O)C2(CCCC2)NC(=O)[C@@H]2CC(F)(F)CN2C(=O)[C@H](CCc2cc(F)c(C(F)(F)F)c(F)c2)NC(=O)CN(C)C(=O)[C@H](Cc2ccc(C(F)(F)F)cc2)N2CCCCC[C@@H](C2=O)N(C)C(=O)CN(C)C1=O [PP0491],7.48,–,–,HRAS /KRAS (HRAS wild-type protein; ratio of the KD value with respect to HRAS wild-type protein to the KD value with respect to KRAS): B (a compound having 3 or more and less than 10 is denoted as B); NRAS /KRAS ([1]; ratio of the KD value with respect to GDP-bound NRAS wild-type protein to the KD value with respect to KRAS): B (a compound having 3 or more and less than 10 is denoted as B)
CCCO[C@@H]1C[C@H]2C(=O)NC3(CC(C)(C)C3)C(=O)N(C)[C@@H](C3CCCC3)C(=O)N(C)[C@H](C(=O)N3CCCC3)CC(=O)N(C)[C@H]3CCCCc4ccc(cc4)C[C@@H](C(=O)N(C)CC(=O)N[C@@H](CCc4ccc(C(F)(F)F)c(OC)c4)C(=O)N2C1)N1CC/C=C\C[C@@H](C1=O)N(C)C(=O)CN(C)C(=O)[C@H]([C@@H](C)CC)NC3=O [PP3094],8.66,B (a compound having 3 or more and less than 10 is denoted as B),A (a compound having 10 or more and less than 20 is denoted as A),–
